Data published in ChEMBL document CHEMBL1141932 (J Med Chem, 2005).

What was measured:
Oryctolagus cuniculus [1] = organism: Oryctolagus cuniculus; assay: Inhibition of chymotrypsin-like (CT-L) activity of rabbit 20S proteasome; type: functional
Oryctolagus cuniculus [2] = organism: Oryctolagus cuniculus; assay: Inhibition of trypsin-like (T-L) activity of rabbit 20S proteasome; type: functional
HEK293 = assay: Inhibition of NF-kB activation in HEK293 cells; type: functional, cell-based; details: Homo sapiens
RPMI-8226 = assay: Cytotoxic activity against RPMI 8226 cells; type: functional, cell-based; details: Homo sapiens
Oryctolagus cuniculus [3] = organism: Oryctolagus cuniculus; assay: Inhibition of caspase-like (CA-L) activity of rabbit 20S proteasome; type: functional

Row | SMILES | IC50 (Oryctolagus cuniculus [1]) [nM] | IC50 (Oryctolagus cuniculus [2]) [nM] | IC50 (HEK293) [nM] | IC50 (RPMI-8226) [nM] | IC50 (Oryctolagus cuniculus [3]) [nM]
1 | CC[C@@]12OC(=O)[C@]1([C@@H](O)[C@@H]1C=CCCC1)NC(=O)[C@@H]2CCCl | 2100 | 3300 | 3600 | 1900 | > 20000
2 | C[C@@]12OC(=O)[C@]1(C(=O)[C@@H]1C=CCCC1)NC(=O)[C@@H]2CCCl | 8200 | 10000 | > 20000 | > 20000 | > 20000
3 | C[C@@]12OC(=O)C1([C@@H](O)[C@@H]1C=CCCC1)NC(=O)[C@@H]2CCO (single isomer, unassigned) [hydroxysalinosporamide A] | 8 | 800 | 2600 | > 20000 | 2500
4 | C[C@@]12OC(=O)[C@]1([C@@H](O)[C@@H]1C=CCCC1)NC(=O)[C@@H]2CCN=[N+]=[N-] | 7.7 | 210 | 1000 | 5500 | 560
5 | C[C@@]12OC(=O)[C@]1(C(O)[C@H]1CCC[C@@H]3OC13)NC(=O)[C@@H]2CCCl (single isomer, unassigned) | 91 | 770 | 300 | 320 | 3200
6 | C[C@@]12OC(=O)[C@]1(C(O)[C@@H]1C=CCCC1)NC(=O)[C@@H]2CCCl (some centres not stated) | > 20000 | > 20000 | > 20000 | > 20000 | > 20000
7 | CC(C)[C@H](O)[C@@]12NC(=O)[C@H](C)[C@@H]1OC2=O [OMURALIDE] | 57 | 540 | 1600 | 3300 | > 10000
8 | CCC[C@H]1C(=O)N[C@@]2([C@@H](O)[C@@H]3C=CCCC3)C(=O)O[C@@]12C | 24 | 1100 | 1900 | 6300 | 1200
9 | C[C@H]1C(=O)N[C@@]2([C@@H](O)[C@@H]3C=CCCC3)C(=O)O[C@@]12C | 7.7 | 340 | 850 | 8500 | 1200
10 | C[C@@]12OC(=O)[C@]1([C@@H](O)[C@@H]1C=CCCC1)NC(=O)[C@@H]2CCBr [BROMOSALINOSPORAMIDE] | 2.6 | 14 | 14 | 7.4 | 290
11 | C[C@@]12OC(=O)[C@]1([C@@H](O)[C@@H]1C=CCCC1)NC(=O)[C@@H]2CCI [IODOSALINOSPORAMIDE] | 2.8 | 13 | 10 | 6.8 | 410
12 | C[C@@]12OC(=O)[C@]1([C@@H](O)[C@H]1CCC[C@H]3O[C@@H]13)NC(=O)[C@@H]2CCCl | 6.3 | 92 | 34 | 32 | 570
13 | C[C@@]12OC(=O)[C@]1([C@@H](O)[C@@H]1C=CCCC1)NC(=O)[C@@H]2CCCl [MARIZOMIB] | 2.6 | – | 11 | 8.2 | 430
14 | CC[C@H]1C(=O)N[C@@]2([C@@H](O)[C@@H]3C=CCCC3)C(=O)O[C@@]12C [SALINOSPORAMIDE B] | 27 | 640 | 1600 | – | –
15 | C[C@@]12OC(=O)[C@]1([C@@H](O)[C@@H]1C=CCCC1)NC(=O)C2CCCl (single isomer, unassigned) | 330 | 2500 | 3800 | 1900 | > 20000
16 | C[C@@]12OC(=O)[C@]1([C@@H](O)C1CCCCC1)NC(=O)[C@@H]2CCCl | 20 | 250 | 71 | 52 | 1400
17 | C[C@@]12OC(=O)[C@]1([C@@H](O)[C@H]1CCC[C@H](Cl)[C@H]1O)NC(=O)[C@@H]2CCCl | 8200 | > 20000 | > 20000 | > 20000 | > 20000
